According to ChEMBL document CHEMBL1201862, “PubChem BioAssay data set” (2004):
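Values below derive from 48-hour exposures of cells grown in 96-well plates, with endpoints linearly interpolated between the two concentrations bracketing the appropriate inhibition level. GI50 marks 50% less growth.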 Activity calls are given as the source filed them. Cut-off read from the data, not from the text of the source: active = GI50 up to about 1.1 µM and inactive = higher.

How the values were obtained:
Test in all cases: inhibition of tumour cell growth, NCI panel, 48 h
A549 = tested on: A549
RXF 393 = tested on: RXF 393
SW-620 = tested on: SW-620
K562 = tested on: K562
KM-20L2 = tested on: KM-20L2
A498 = tested on: A498
OVCAR-8 = tested on: OVCAR-8
UACC-62 = tested on: UACC-62
CAKI-1 = tested on: CAKI-1
DLD-1 = tested on: DLD-1
HCT-116 = tested on: HCT-116
SNB-75 = tested on: SNB-75
HL-60 = tested on: HL-60
RPMI-8226 = tested on: RPMI-8226
HT-29 = tested on: HT-29
NCI-H23 = tested on: NCI-H23
UO-31 = tested on: UO-31
COLO 205 = tested on: COLO 205
HOP-92 = tested on: HOP-92
KM12 = tested on: KM12
DMS-114 = tested on: DMS-114
SF-268 = tested on: SF-268
SNB-19 = tested on: SNB-19
NCI-H226 = tested on: NCI-H226
Malme-3M = tested on: Malme-3M
SF-539 = tested on: SF-539
SN12C = tested on: SN12C
NCI-H522 = tested on: NCI-H522
EKVX = tested on: EKVX
U-251 = tested on: U-251
ACHN = tested on: ACHN
XF498 = tested on: XF498
M19-MEL = tested on: M19-MEL
SK-MEL-5 = tested on: SK-MEL-5
HOP-62 = tested on: HOP-62
SR = tested on: SR
HCC 2998 = tested on: HCC 2998
LOX IMVI = tested on: LOX IMVI
SK-MEL-28 = tested on: SK-MEL-28
OVCAR-3 = tested on: OVCAR-3
M14 = tested on: M14
IGROV-1 = tested on: IGROV-1
OVCAR-5 = tested on: OVCAR-5
CCRF-CEM = tested on: CCRF-CEM
DMS-273 = tested on: DMS-273
OVCAR-4 = tested on: OVCAR-4
SK-OV-3 = tested on: SK-OV-3
HCT-15 = tested on: HCT-15
NCI-H460 = tested on: NCI-H460
UACC-257 = tested on: UACC-257
786-0 = tested on: 786-0
HOP-18 = tested on: HOP-18
TK-10 = tested on: TK-10
SK-MEL-2 = tested on: SK-MEL-2
MOLT-4 = tested on: MOLT-4
LXFL 529 = tested on: LXFL 529
RXF 631 = tested on: RXF 631
SF-295 = tested on: SF-295
SNB-78 = tested on: SNB-78

CC(=O)OCC1=CC2CCC3C(C)(CCC[C@]3(C)COC(C)=O)C23CC[C@H]1C3 (some centres undefined)
GI50 (A549): 64 µM (inactive) | GI50 (RXF 393): 46.5 µM (inactive) | GI50 (SW-620): 56.6 µM (inactive) | GI50 (K562): 27.2 µM (inactive) | GI50 (KM-20L2): 41 µM (inactive) | GI50 (A498): > 100 µM (inactive) | GI50 (OVCAR-8): 53.7 µM (inactive) | GI50 (UACC-62): 36.1 µM (inactive) | GI50 (CAKI-1): 39.6 µM (inactive) | GI50 (DLD-1): 51.6 µM (inactive) | GI50 (HCT-116): 38.8 µM (inactive) | GI50 (SNB-75): 34.9 µM (inactive) | GI50 (HL-60): 26 µM (inactive) | GI50 (RPMI-8226): 21.6 µM (inactive) | GI50 (HT-29): 35.8 µM (inactive) | GI50 (NCI-H23): 33.9 µM (inactive) | GI50 (UO-31): 53.7 µM (inactive) | GI50 (COLO 205): 24 µM (inactive) | GI50 (HOP-92): 27.8 µM (inactive) | GI50 (KM12): 33.7 µM (inactive) | GI50 (DMS-114): 12.9 µM (inactive) | GI50 (SF-268): > 100 µM (inactive) | GI50 (SNB-19): 68.4 µM (inactive) | GI50 (NCI-H226): 68.1 µM (inactive) | GI50 (Malme-3M): 52.8 µM (inactive) | GI50 (SF-539): 40.3 µM (inactive) | GI50 (SN12C): 45.2 µM (inactive) | GI50 (NCI-H522): 18.8 µM (inactive) | GI50 (EKVX): 83 µM (inactive) | GI50 (U-251): 27.9 µM (inactive) | GI50 (ACHN): 73.1 µM (inactive) | GI50 (XF498): 33.8 µM (inactive) | GI50 (M19-MEL): 34.5 µM (inactive) | GI50 (SK-MEL-5): 25.5 µM (inactive) | GI50 (HOP-62): 75.9 µM (inactive) | GI50 (SR): 27.5 µM (inactive) | GI50 (HCC 2998): 22.3 µM (inactive) | GI50 (LOX IMVI): 25 µM (inactive) | GI50 (SK-MEL-28): > 100 µM (inactive) | GI50 (OVCAR-3): 31.9 µM (inactive) | GI50 (M14): 36 µM (inactive) | GI50 (IGROV-1): 99.3 µM (inactive) | GI50 (OVCAR-5): > 100 µM (inactive) | GI50 (CCRF-CEM): 27.9 µM (inactive) | GI50 (DMS-273): 29.6 µM (inactive) | GI50 (OVCAR-4): 30.1 µM (inactive) | GI50 (SK-OV-3): 64.7 µM (inactive) | GI50 (HCT-15): > 100 µM | GI50 (NCI-H460): > 100 µM (inactive) | GI50 (UACC-257): 37.7 µM (inactive) | GI50 (786-0): 57.3 µM (inactive) | GI50 (HOP-18): > 100 µM (inactive) | GI50 (TK-10): > 100 µM (inactive) | GI50 (SK-MEL-2): 33.8 µM (inactive) | GI50 (MOLT-4): 20.1 µM (inactive) | GI50 (LXFL 529): 29.2 µM (inactive) | GI50 (RXF 631): > 100 µM (inactive) | GI50 (SF-295): 37.3 µM (inactive)

Cc1cc(N(CCC#N)CCC#N)ccc1/C=C1\N=C(c2cc([N+](=O)[O-])ccc2Cl)N(NC(=O)c2ccc(/N=C\c3ccc(N(CCC#N)S(C)(=O)=O)cc3C)cc2)C1=O
GI50 (A549): > 100 µM (inactive) | GI50 (RXF 393): > 100 µM (inactive) | GI50 (SW-620): > 100 µM (inactive) | GI50 (K562): 31.9 µM (inactive) | GI50 (KM-20L2): 58.2 µM (inactive) | GI50 (A498): > 100 µM (inactive) | GI50 (SNB-78): > 100 µM (inactive) | GI50 (OVCAR-8): > 100 µM (inactive) | GI50 (UACC-62): 24.2 µM (inactive) | GI50 (CAKI-1): > 100 µM (inactive) | GI50 (DLD-1): 63.5 µM (inactive) | GI50 (HCT-116): > 100 µM (inactive) | GI50 (SNB-75): > 100 µM (inactive) | GI50 (HL-60): 61.4 µM (inactive) | GI50 (RPMI-8226): > 100 µM (inactive) | GI50 (HT-29): 54.5 µM (inactive) | GI50 (NCI-H23): > 100 µM (inactive) | GI50 (UO-31): > 100 µM (inactive) | GI50 (COLO 205): > 100 µM (inactive) | GI50 (HOP-92): 98.9 µM (inactive) | GI50 (KM12): > 100 µM (inactive) | GI50 (DMS-114): 85.5 µM (inactive) | GI50 (SF-268): > 100 µM (inactive) | GI50 (SNB-19): > 100 µM (inactive) | GI50 (NCI-H226): > 100 µM (inactive) | GI50 (Malme-3M): > 100 µM (inactive) | GI50 (SF-539): > 100 µM (inactive) | GI50 (SN12C): > 100 µM (inactive) | GI50 (NCI-H522): > 100 µM (inactive) | GI50 (EKVX): > 100 µM (inactive) | GI50 (U-251): > 100 µM (inactive) | GI50 (ACHN): 89.9 µM (inactive) | GI50 (XF498): > 100 µM (inactive) | GI50 (M19-MEL): 73.1 µM (inactive) | GI50 (SK-MEL-5): 38.2 µM (inactive) | GI50 (HOP-62): 63.5 µM (inactive) | GI50 (HCC 2998): > 100 µM (inactive) | GI50 (LOX IMVI): > 100 µM (inactive) | GI50 (SK-MEL-28): > 100 µM (inactive) | GI50 (OVCAR-3): > 100 µM (inactive) | GI50 (M14): 37.9 µM (inactive) | GI50 (IGROV-1): > 100 µM (inactive) | GI50 (OVCAR-5): > 100 µM (inactive) | GI50 (CCRF-CEM): 76.4 µM (inactive) | GI50 (DMS-273): 41.5 µM (inactive) | GI50 (OVCAR-4): > 100 µM (inactive) | GI50 (SK-OV-3): > 100 µM (inactive) | GI50 (HCT-15): 33 µM | GI50 (NCI-H460): > 100 µM (inactive) | GI50 (UACC-257): 63.4 µM (inactive) | GI50 (786-0): > 100 µM (inactive) | GI50 (HOP-18): > 100 µM (inactive) | GI50 (TK-10): > 100 µM (inactive) | GI50 (SK-MEL-2): > 100 µM (inactive) | GI50 (LXFL 529): 64.3 µM (inactive) | GI50 (RXF 631): > 100 µM (inactive)

O=C1OC(=O)c2c1c(-c1ccccc1)cn2-c1ccc(Cl)cc1
GI50 (A549): 83 µM (inactive) | GI50 (SW-620): > 100 µM (inactive) | GI50 (K562): 2.22 µM (inactive) | GI50 (KM-20L2): 22.1 µM (inactive) | GI50 (SNB-78): > 100 µM (inactive) | GI50 (OVCAR-8): > 100 µM (inactive) | GI50 (UACC-62): 1.64 µM (inactive) | GI50 (DLD-1): > 100 µM (inactive) | GI50 (HCT-116): > 100 µM (inactive) | GI50 (SNB-75): > 100 µM (inactive) | GI50 (HL-60): 1.15 µM (inactive) | GI50 (RPMI-8226): 26.8 µM (inactive) | GI50 (HT-29): > 100 µM (inactive) | GI50 (NCI-H23): > 100 µM (inactive) | GI50 (UO-31): > 100 µM (inactive) | GI50 (COLO 205): 10.6 µM (inactive) | GI50 (HOP-92): > 100 µM (inactive) | GI50 (KM12): 86.1 µM (inactive) | GI50 (DMS-114): 77.3 µM (inactive) | GI50 (SF-268): > 100 µM (inactive) | GI50 (SNB-19): > 100 µM (inactive) | GI50 (NCI-H226): > 100 µM (inactive) | GI50 (Malme-3M): > 100 µM (inactive) | GI50 (SF-539): > 100 µM (inactive) | GI50 (SN12C): > 100 µM (inactive) | GI50 (NCI-H522): 67.3 µM (inactive) | GI50 (EKVX): 41.1 µM (inactive) | GI50 (U-251): 87.3 µM (inactive) | GI50 (ACHN): 37.2 µM (inactive) | GI50 (XF498): > 100 µM (inactive) | GI50 (M19-MEL): 21.1 µM (inactive) | GI50 (SK-MEL-5): 3.38 µM (inactive) | GI50 (HOP-62): 14.6 µM (inactive) | GI50 (SR): > 100 µM (inactive) | GI50 (HCC 2998): > 100 µM (inactive) | GI50 (LOX IMVI): 48.1 µM (inactive) | GI50 (SK-MEL-28): > 100 µM (inactive) | GI50 (OVCAR-3): 54.7 µM (inactive) | GI50 (M14): 8.28 µM (inactive) | GI50 (IGROV-1): 24.7 µM (inactive) | GI50 (OVCAR-5): > 100 µM (inactive) | GI50 (CCRF-CEM): 35.6 µM (inactive) | GI50 (DMS-273): 8.77 µM (inactive) | GI50 (SK-OV-3): > 100 µM (inactive) | GI50 (HCT-15): 45.3 µM | GI50 (NCI-H460): > 100 µM (inactive) | GI50 (UACC-257): > 100 µM (inactive) | GI50 (786-0): > 100 µM (inactive) | GI50 (HOP-18): > 100 µM (inactive) | GI50 (TK-10): > 100 µM (inactive) | GI50 (SK-MEL-2): > 100 µM (inactive) | GI50 (MOLT-4): 15 µM (inactive) | GI50 (LXFL 529): 5.94 µM (inactive) | GI50 (RXF 631): > 100 µM (inactive) | GI50 (SF-295): > 100 µM (inactive)
